Assay results reported in paper PMC4175000 (Journal of Medicinal Chemistry, 2014).

Legend:
hM4 = molecular target: T1, hM4 (Homo sapiens, UniProt P08173); assay: muscarinic selectivity calcium mobilization, hM4/Gqi5; type: cell-based; details: CHO hM4/Gqi5
T1 sequence (P08173 1-479): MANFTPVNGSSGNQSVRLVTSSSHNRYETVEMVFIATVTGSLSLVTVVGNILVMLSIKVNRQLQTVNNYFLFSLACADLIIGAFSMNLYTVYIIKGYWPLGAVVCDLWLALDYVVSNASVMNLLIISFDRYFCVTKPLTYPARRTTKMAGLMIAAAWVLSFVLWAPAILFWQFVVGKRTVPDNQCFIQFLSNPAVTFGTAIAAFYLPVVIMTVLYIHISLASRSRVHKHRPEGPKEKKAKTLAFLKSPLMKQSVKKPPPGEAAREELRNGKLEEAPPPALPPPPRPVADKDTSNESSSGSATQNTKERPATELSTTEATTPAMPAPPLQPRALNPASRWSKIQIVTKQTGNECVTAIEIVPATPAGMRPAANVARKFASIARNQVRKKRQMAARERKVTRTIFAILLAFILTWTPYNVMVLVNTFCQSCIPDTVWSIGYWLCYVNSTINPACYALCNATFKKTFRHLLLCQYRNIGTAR

hM3 = hM3 (Homo sapiens, UniProt P20309); assay: muscarinic selectivity calcium mobilization, hM3; type: cell-based; details: hM5 versus hM3 PAM potency
Sequence of hM3 (P20309 whole entry): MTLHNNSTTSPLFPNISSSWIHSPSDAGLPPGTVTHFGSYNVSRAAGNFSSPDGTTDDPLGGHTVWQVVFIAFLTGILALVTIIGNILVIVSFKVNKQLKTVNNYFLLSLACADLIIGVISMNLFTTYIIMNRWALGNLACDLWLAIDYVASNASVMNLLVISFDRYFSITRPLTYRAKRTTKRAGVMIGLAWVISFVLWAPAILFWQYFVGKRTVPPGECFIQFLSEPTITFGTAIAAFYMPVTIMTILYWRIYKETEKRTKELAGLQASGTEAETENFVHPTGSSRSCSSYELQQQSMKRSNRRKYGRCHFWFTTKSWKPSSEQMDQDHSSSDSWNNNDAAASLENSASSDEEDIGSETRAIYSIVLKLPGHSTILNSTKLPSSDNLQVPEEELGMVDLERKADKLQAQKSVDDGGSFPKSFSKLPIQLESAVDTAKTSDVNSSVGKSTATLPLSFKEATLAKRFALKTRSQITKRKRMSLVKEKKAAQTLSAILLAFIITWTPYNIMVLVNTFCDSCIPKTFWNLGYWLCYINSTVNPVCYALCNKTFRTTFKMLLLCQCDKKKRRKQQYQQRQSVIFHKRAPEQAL

hM2 = molecular target: T2, hM2 (Homo sapiens, UniProt P08172); assay: muscarinic selectivity calcium mobilization, hM2/Gqi5; type: cell-based; details: CHO hM2/Gqi5
T2 sequence (P08172 1-466): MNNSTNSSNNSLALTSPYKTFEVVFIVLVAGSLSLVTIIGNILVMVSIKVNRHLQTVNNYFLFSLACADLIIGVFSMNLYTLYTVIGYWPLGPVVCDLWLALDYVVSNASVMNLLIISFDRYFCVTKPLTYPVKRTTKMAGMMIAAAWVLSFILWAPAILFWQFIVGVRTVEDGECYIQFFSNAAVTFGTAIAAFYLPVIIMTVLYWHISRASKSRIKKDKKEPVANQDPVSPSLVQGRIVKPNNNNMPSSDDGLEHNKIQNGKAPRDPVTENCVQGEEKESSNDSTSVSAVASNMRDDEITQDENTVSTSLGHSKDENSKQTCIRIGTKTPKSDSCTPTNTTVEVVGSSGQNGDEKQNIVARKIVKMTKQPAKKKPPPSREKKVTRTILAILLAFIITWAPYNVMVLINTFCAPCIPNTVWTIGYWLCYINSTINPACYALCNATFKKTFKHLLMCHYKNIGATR

hM5 receptor [1] = molecular target: T3, hM5 receptor (Homo sapiens, UniProt P08912); assay: ACh CRC fold shift, calcium mobilization; type: cell-based; details: compound at 10 μM; leftward shift in ACh potency at hM5; average ± SEM, n = 3–4
T3 sequence (P08912 1-532): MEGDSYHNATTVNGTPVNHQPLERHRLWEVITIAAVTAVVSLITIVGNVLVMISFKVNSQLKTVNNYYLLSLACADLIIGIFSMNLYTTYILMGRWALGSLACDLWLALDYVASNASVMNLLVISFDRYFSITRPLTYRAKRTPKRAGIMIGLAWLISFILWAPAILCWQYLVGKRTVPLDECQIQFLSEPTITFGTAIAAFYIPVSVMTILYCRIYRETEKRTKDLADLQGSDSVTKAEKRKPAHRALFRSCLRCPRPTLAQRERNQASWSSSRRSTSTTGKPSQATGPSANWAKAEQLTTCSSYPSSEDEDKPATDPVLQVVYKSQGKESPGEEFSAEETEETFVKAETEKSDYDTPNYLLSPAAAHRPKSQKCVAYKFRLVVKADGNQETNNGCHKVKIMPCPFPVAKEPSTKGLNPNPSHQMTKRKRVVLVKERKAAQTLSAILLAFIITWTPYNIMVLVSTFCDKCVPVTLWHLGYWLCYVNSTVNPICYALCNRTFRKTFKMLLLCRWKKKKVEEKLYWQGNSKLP

human M5 receptors = molecular target: T4, human M5 receptors (Homo sapiens, UniProt P08912); assay: hM5 PAM calcium mobilization assay; type: cell-based; details: for improvement in hM5 PAM EC50 over the naked phenylsulfonamide: versus 6a
T4 sequence (P08912 1-532): T3 sequence (P08912 1-532)

hM5 receptor [2] = molecular target: T3, hM5 receptor; assay: [3H]NMS competition binding, hM5 CHO membranes; details: 0.3 nM [3H]NMS
hM1 = molecular target: T5, hM1 (Homo sapiens, UniProt P11229); assay: muscarinic selectivity calcium mobilization, hM1; type: cell-based; details: hM5 versus hM1 PAM potency
T5 sequence (P11229 1-460): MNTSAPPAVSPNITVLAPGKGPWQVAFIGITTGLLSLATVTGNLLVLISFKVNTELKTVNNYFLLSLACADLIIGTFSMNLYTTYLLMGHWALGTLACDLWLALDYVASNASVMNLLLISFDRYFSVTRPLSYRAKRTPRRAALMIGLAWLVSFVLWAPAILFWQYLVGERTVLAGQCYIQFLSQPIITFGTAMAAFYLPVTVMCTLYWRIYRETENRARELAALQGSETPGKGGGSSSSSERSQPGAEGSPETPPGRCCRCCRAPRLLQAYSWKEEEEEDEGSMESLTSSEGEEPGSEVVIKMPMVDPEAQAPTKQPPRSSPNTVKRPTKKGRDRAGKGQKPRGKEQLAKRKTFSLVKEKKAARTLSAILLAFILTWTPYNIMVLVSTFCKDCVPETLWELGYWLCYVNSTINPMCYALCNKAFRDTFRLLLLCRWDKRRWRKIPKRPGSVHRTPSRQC

[3] = hepatic microsomal intrinsic clearance, rat; type: in vitro ADME
[4] = hepatic microsomal intrinsic clearance, human; type: in vitro ADME
[5] = in vitro metabolite identification; type: in vitro ADME

Question: What does the source list for `CCN(Cc1ccccc1C(F)(F)F)C(=O)C1CCN(S(=O)(=O)c2ccc3[nH]ncc3c2)CC1` [8n, 1-((1H-Indazol-5-yl)sulfonyl)-N-ethyl-N-(2-(trifluoromethyl)benzyl)piperidine-4-carboxamide]?
Answer: activity at hM4 (in words) (hM4): no activity; selectivity over hM3 (hM3): greater than 10 fold; activity at hM2 (in words) (hM2): no activity; ACh fold shift (hM5 receptor [1]): 7- to 12 fold; hM5 PAM potency relative to des-CF3 congener 6p (human M5 receptors; more potent): 8 fold; effect on [3H]NMS binding (in words) (hM5 receptor [2]): no inhibitory effect; selectivity over hM1 (hM1): greater than 10 fold; hepatic microsomal intrinsic clearance CLint ([3]; rat): 2600 mL min^–1 kg^–1; predicted hepatic clearance CLhep ([3]; rat): 68 mL min^–1 kg^–1; CLint scaled at 1 µM ([3]; rat, liver microsomes, pH 7.4): 2600 mL/min/kg; predicted CLhep (mL/min/kg) ([3]; rat, well-stirred model from CLint, not corrected for fu plasma): rat: 68 mL/min/kg; hepatic microsomal intrinsic clearance CLint [4]: 540 mL min^–1 kg^–1; predicted hepatic clearance CLhep [4]: 20 mL min^–1 kg^–1; CLint scaled at 1 µM ([4]; liver microsomes, pH 7.4): 540 mL/min/kg; predicted CLhep (mL/min/kg) ([4]; well-stirred model from CLint, not corrected for fu plasma): human: 20 mL/min/kg

Question: Which ACh fold shift (hM5 receptor [1]) does the source give for `CCN(C(=O)C1CCN(S(=O)(=O)c2ccc3[nH]ncc3c2)CC1)[C@H](C)c1ccccc1` [7g] here?
Answer: 7- to 12 fold

Question: And the “primary site of metabolism” value [5]?
Answer: N-ethyl moiety as the primary site of metabolism

Question: Which ACh fold shift (hM5 receptor [1]) does the source give for `CCN(C(=O)C1CCN(S(=O)(=O)c2ccc(OC)cc2)CC1)[C@H](C)c1ccccc1` [7b] here?
Answer: 7- to 12 fold

Question: And the “improvement in hM5 potency relative to des-methyl analog 6b” value (human M5 receptors)?
Answer: 3 fold

Question: Which ACh fold shift (hM5 receptor [1]) does the source give for `CCN(Cc1ccccc1C(F)(F)F)C(=O)C1CCN(S(=O)(=O)c2ccc3cn[nH]c3c2)CC1` [8j] here?
Answer: 7- to 12 fold

Question: With `CCN(Cc1ccccc1)C(=O)C1CCN(S(=O)(=O)c2ccc3[nH]ncc3c2)CC1` [6p] as the compound, how does the “improvement in hM5 PAM EC50 over the naked phenylsulfonamide” value (human M5 receptors) read?
Answer: approximately 3 fold

Question: With `CCN(Cc1ccccc1)C(=O)C1CCN(S(=O)(=O)c2ccc3occc3c2)CC1` [6o] as the compound, how does the “improvement in hM5 PAM EC50 over the naked phenylsulfonamide” value (human M5 receptors) read?
Answer: approximately 3 fold

Question: Which “improvement in hM5 PAM EC50 over the naked phenylsulfonamide” value (human M5 receptors) does the source give for `CCN(Cc1ccccc1)C(=O)C1CCN(S(=O)(=O)c2ccc3cn[nH]c3c2)CC1` [6q] here?
Answer: approximately 3 fold

Question: With `O=C(C1CCN(S(=O)(=O)c2ccc3[nH]ncc3c2)CC1)N(Cc1ccccc1C(F)(F)F)C1CC1` [9d] as the compound, how does the “activity at hM5 (in words)” value (human M5 receptors; PAM, calcium mobilization) read?
Answer: complete absence of activity

Question: And the “change of intrinsic microsomal clearance (in words)” value ([3]; relative to the other analogs (rat CLint > 500))?
Answer: reduce intrinsic microsomal clearance by an order of magnitude
